# Laboratory results reported in paper PMC5920098, “Identification of the allosteric P2X7 receptor antagonist [^11C]SMW139 as a PET tracer of microglial activation” (Scientific Reports, 2018).
# Entries after “also recorded” stand apart in the source; their conditions may differ.
# Legend:
# [1] = Ex vivo metabolite analysis (plasma and brain) in healthy male Wistar rats; set-up: species or system rat
# Experimental: In vivo stability of analogues [^11C]1–3 and [^11C]SMW139 was assessed in healthy male Wistar rats at 15 and 45 minutes after injection of 30–40 MBq of formulated tracer. […] Results obtained in plasma correspond with previously reported stability results in rat liver microsomes. A higher level of intact tracer was found in brain (Table 3) for [^11C]1 and [^11C]SMW139 compared with [^11C]2 and [^11C]3. Despite optimisation of the extraction method, the percentage of total radioactivity that could be extracted from brain homogenates was not optimal for all four compounds (59 ± 6% for [^11C]1; 58 ± 7% for [^11C]2; 61 ± 4% for [^11C]3; 62 ± 3% for [^11C]SMW139). Therefore, based on its highest stability in plasma in vivo, [^11C]SMW139 was selected for further in vivo studies. As imaging studies were performed in female rats, plasma metabolites were also determined in two female rats, and no differences were found between plasma metabolism of [^11C]SMW139 in male and female rats (Table S1; Supplementary Information).
# For each of the carbon-11 labelled benzamide analogues [^11C]1–3 and [^11C]SMW139, a biodistribution study and metabolite analysis in healthy male Wistar rats was performed, as described in detail in the Supplementary Information. Briefly, tracer distribution in blood, brain, and peripheral organs was measured at 5, 15, 30 and 45 min after intravenous injection of 13–23 MBq of formulated tracer. Metabolite analysis was performed at 15 and 45 min after intravenous injection of 30–40 MBq of formulated tracer in both blood plasma and brain. […]
# Ex vivo metabolite analysis
# Healthy male and female Wistar rats (254-440 g) were injected with 30-40 MBq (at start of experiment) of formulated tracer in the tail vein under isoflurane anaesthesia. Rats were sacrificed at 15 and 45 min (n = 3 per time point). Blood samples were obtained and the brain was excised. Blood samples were collected in heparin tubes (BD Vacutainer NH 119 I.U., 7 mL, BD Vacutainer Systems, Plymouth, UK) and centrifuged at 4,000 rpm for 5 min at 4 °C (Hettich Universal 32, Andreas Hettich GmbH & Co.KG, Tuttlingen, Germany). Plasma supernatant was separated from blood cells and loaded onto a tC18 Sep-Pak (Waters, Milford, MA, USA), followed by washing with 3 mL of water to obtain the polar fraction. The non-polar fraction was then eluted with 2 mL of MeOH and 1 mL of water and further analysed by HPLC. The brain was put in a falcon tube containing 4 mL MeCN/H2O (50:50 v/v) and homogenised with a disperser (IKA T18 B Ultra-Turrax, IKA®-Werke GmbH & Co.KG, Staufen, Germany) before centrifugation (5 min, 4,000 rpm, 20 °C, Hettich Universal 32). Supernatant was separated from brain precipitate and analysed by HPLC. Analytical HPLC was performed with Dionex (Sunnyvale, CA, USA) UltiMate 3000 HPLC equipment with Chromeleon software (version 6.8) on a Gemini C18 5-µm (10 x 250 mm) column (Phenomenex, Torrance, CA, USA) with gradient and a mixture of MeCN (A) and 0.1% DIPA in water (B) as eluent according to the following scheme: 0 min, […]
# 0.25 mL·min-1. All separate fractions were counted for radioactivity in a Wizard Gammacounter 1470 or 2480 (Wallac/PerkinElmer, Waltham, MA, USA).
# [2] = LogDoct,7.4 by shake-flask method (1-octanol / 0.2 M phosphate buffer pH 7.4); assay type: physicochemical; settings: mean ± SD, read-out: LogDoct,7.4 (n = 3)
# Experimental: The LogDoct,7.4 of analogues [^11C]1–3 and [^11C]SMW139 ([^11C]4) was determined using the shake-flask method (partitioning between 1-octanol and 0.2 M phosphate buffer (pH 7.4)). Determined LogDoct,7.4 values (Table 1) show the same trend as LogD values reported by Wilkinson et al.[10].
# LogDoct,7.4 of [^11C]1–3 and [^11C]SMW139 was determined by the shake-flask method as described in the Supplementary Information.
# Analytical HPLC chromatogram of [11C]SMW139 formulation (Platinum C18, MeCN/H2O/TFA 45:55:0.1, 1 […]
# Determination of LogDoct,7.4
# The distribution of radiolabelled compound between 1-octanol and 0.2 M phosphate buffer (pH = 7.4) was measured at room temperature. Briefly, 1 mL of a 20 MBq·mL-1 solution of radiolabelled compound in 0.2 M phosphate buffer (pH = 7.4) was mixed with 1 mL of 1-octanol for 1 min using a vortex mixer. After a settling period of 30 min, three samples of 100 μL were taken from both layers.
# All samples were counted for radioactivity in a Wallac Universal Gammacounter 1282 (PerkinElmer, Waltham, MA, USA). The LogDoct,7.4 value was calculated according to LogDoct,7.4 = 10Log(Aoct/Abuffer), where Aoct and Abuffer represent average radioactivity counts of the three 1-octanol and the three […]
# (1 picture or pasted object on this page, not shown here)
# [3] = target: T1, human P2X7 receptor (hP2X7R) (Homo sapiens, UniProt Q99572); assay: In vitro autoradiography on rat brain cryosections locally overexpressing hP2X7R; settings: co-incubation with blocker 10 µM, tracer 28 nM, n = 2
# T1 sequence (Q99572 1-595): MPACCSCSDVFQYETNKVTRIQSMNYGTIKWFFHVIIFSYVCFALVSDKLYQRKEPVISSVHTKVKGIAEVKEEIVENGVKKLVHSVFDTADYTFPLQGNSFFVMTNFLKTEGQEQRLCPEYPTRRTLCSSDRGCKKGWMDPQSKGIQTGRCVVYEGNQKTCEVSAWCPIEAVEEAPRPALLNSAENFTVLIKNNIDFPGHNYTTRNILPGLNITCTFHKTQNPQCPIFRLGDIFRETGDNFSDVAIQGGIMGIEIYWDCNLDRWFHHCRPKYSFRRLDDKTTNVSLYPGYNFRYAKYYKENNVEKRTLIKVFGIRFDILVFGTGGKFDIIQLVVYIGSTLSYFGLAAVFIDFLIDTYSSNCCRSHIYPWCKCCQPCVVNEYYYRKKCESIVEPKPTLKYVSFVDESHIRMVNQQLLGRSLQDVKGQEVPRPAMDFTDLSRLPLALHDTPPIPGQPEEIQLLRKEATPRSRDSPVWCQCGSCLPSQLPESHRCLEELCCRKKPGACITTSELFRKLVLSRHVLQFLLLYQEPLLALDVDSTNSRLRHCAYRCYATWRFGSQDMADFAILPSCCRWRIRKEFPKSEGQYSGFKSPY
# Experimental: Snap frozen brain tissue was cut on a cryostat into 20 μm sections.
# Stereotactic injection of viral vector
# Female Wistar rats (n=7) were anaesthetised by intraperitoneal (i.p.)
# injection of ketamine (75 mg·kg-1); Ketalar, Pfizer, Brussels, Belgium) and medetomidin (1 mg·kg-1;
# Domitor, Pfizer) and positioned in a stereotactic head frame (Stoelting, Wood Dale, IL, USA). Right and
# left striatum were injected with 4 µL of the hP2X7R vector (rAAV_3flag-hP2X7R) and of the control
# vector (rAAV_3flag-eGFP), respectively, at a rate of 0.25 µL·min-1, using a 30-gauge needle connected
# to a 10 µL Hamilton syringe. Coordinates used for striatal injection of the hP2X7R vector were:
# anteroposterior 0 cm, lateral -0.28 cm and dorsoventral -0.64 cm relative to bregma. Coordinates
# used for striatal injection of the eGFP vector were: anteroposterior 0 cm, lateral +0.28 cm and
# dorsoventral -0.64 cm relative to bregma. After injection, the needle was kept in place for another 5
# minutes before removing it slowly. To reverse the anaesthesia, the rats were injected intraperitoneally
# with 0.5 mg·kg-1 atipamezol (Antisedan, Orion Pharma, Newburry, Berkshire, UK).
# Rats were sacrificed for in
# vitro autoradiography at 3 (n=2) and 12 (n=5) weeks after vector injection.
# Snap frozen brains of female Wistar rats (rAAV_3flag-hP2X7R in right striatum; rAAV_3flag-eGFP in left
# striatum; sacrificed 3 weeks (n = 2) or 12 weeks (n = 5) after vector injection) were cut on a Leica
# CM3050 S cryostat (Leica Biosystems, Nussloch, Germany) at -19 °C in transversal sections of 20 µm,
# thaw-mounted on SuperFrostTM Plus (Thermo Fisher Scientific, Waltham, MA, USA) object glasses,
# dried overnight on silica at 4 °C and then stored at -20 °C until use.
# Upon use, sections were thawed to room temperature for an hour
# before washing the sections in 5 mM Tris-HCl buffer (pH 7.4) at room temperature (3x 5 min). Sections
# were dried in a cold stream of air before incubation (30 min) with 5 mM Tris-HCl buffer (pH 7.4)
# concentration. After incubation, sections were washed (3x 1.5 min) in ice-cold 5 mM Tris-HCl buffer
# (pH 7.4) followed by a dip in ice-cold demineralised water. Sections were dried in a stream of air and
# then exposed to a storage phosphor screen (BAS-IP SR 2040 E, GE Healthcare Europe GmbH,
# Eindhoven, the Netherlands) and the screen was read out on a Typhoon FLA 7000 phosphor imager
# (GE Healthcare Europe GmbH, Eindhoven, the Netherlands).
# quantified using ImageQuantTL Analysis Toolbox (version 8.1, GE Healthcare). In case of the rat brain
# sections, regions of interest (ROIs) were defined around the striatum. […] Results are expressed as mean intensity, or as
# percentage of tracer binding, relative to total tracer binding in the contralateral striatum. Experiments
# with rAAV_3flag-hP2X7R injected rat brains were performed as a duplicate of quadruplicates.
# Statistical analysis of quantitative autoradiography data (unpaired t test, two-tailed) was performed
# [4] = Extended single microdose toxicity study in Wistar rats; assay type: in vivo
# Experimental: A single microdose toxicity study for P2X7R antagonist SMW139 was performed according to EMEA guideline EMA/CPMP/ICH/286/1995 (December 2009) in healthy Wistar rats (male and female) at a dose of 0.12 mg·kg^−1. Rats were administered SMW139 or vehicle and parameters assessed post-dose were clinical signs and mortality, changes in body weight, food consumption, terminal haematology, coagulation and clinical chemistry parameters, gross pathology and organ weights. Further details are described in the Supplementary Information. […]
# Extended single microdose toxicity study
# A single microdose toxicity study according to EMEA guideline EMA/CPMP/ICH/286/1995 (December 2009) was performed in healthy Wistar rats at a 1000 times higher dose than the maximal dose […]
# minimum specific activity of 18.5 GBq·µmol-1). Animals were allowed to acclimatise for 10 days, group-housed and in an enriched environment with food and water available ad libitum, and with a 12-hour light-dark cycle in a temperature controlled room. Post-dosing, animals were single-housed, but with the ability to communicate. SMW139 was formulated in 6.7% EtOH in acetate/citrate buffer (citric acid monohydrate (8 mg·mL-1), sodium citrate dehydrate (16 mg·mL-1) and sodium acetate trihydrate (7 mg ·mL-1); pH 5.2) with 2.5% Tween-80. Male and female Wistar rats (244-355 g; Charles River, Tranent, Edinburgh, United Kingdom) were injected intravenously via the tail vein under light isoflurane anaesthetics with formulated SMW139 (1 mL·kg-1, corresponding to a single dose of 0.12 mg·kg-1; female n = 10; male n = 10), or vehicle only (1 mL·kg-1; female n = 10; male n = 10) and animals were sacrificed 24 hours (SMW139; female n = 5; male n = 5; vehicle; female n = 5; male n = 5) or 14 days (SMW139; female n = 5; male n = 5; vehicle; female n = 5; male n = 5) post-dose by exsanguination
# [5] = rat plasma, 15 min p.i., male Wistar rats
# [6] = rat plasma, 45 min p.i., male Wistar rats
Structure (SMILES),"Intact tracer (%) ([1]; rat brain, 15 min p.i.)","Intact tracer (%) ([1]; rat brain, 45 min p.i.)","Intact tracer (%) [1, 5]","Intact tracer (%) [1, 6]",logD [2],Block of [^11C]SMW139 binding in rAAV_3flag-hP2X7R striatum [3],Food consumption ([4]; single i.v. dose 0.12 mg·kg^−1),"Haematology, coagulation and clinical chemistry parameters ([4]; single i.v. dose 0.12 mg·kg^−1)",Necropsy findings ([4]; single i.v. dose 0.12 mg·kg^−1),Organ weights ([4]; single i.v. dose 0.12 mg·kg^−1),"Toxic / clinical effects ([4]; single i.v. dose 0.12 mg·kg^−1, male and female rats)","Body weight curves vs vehicle ([4]; single i.v. dose 0.12 mg·kg^−1, p ≥ 0.05)"
[11CH3]Oc1ccc(Cl)c(C(=O)NCC23CC4CC(CC(F)(C4)C2)C3)c1 [[^11C]2],67 ± 5%,32 ± 4%,37 ± 7%,15 ± 2%,2.93 ± 0.02,,,,,,,
"COc1ccc(CC(=O)NC(NC(=NC#N)Nc2cccc3ncccc23)C(C)(C)C)cc1OC (stereo not shown) [A-740003, N-(1-{[(Cyanoimino)(5-quinolinylamino)methyl]amino}-2,2-dimethylpropyl)-2-(3,4-dimethoxyphenyl)acetamide, reference compound]",,,,,,79 ± 10%,,,,,,
COc1ccc(Cl)c(C(=O)NCC23CC4(F)CC(F)(CC(F)(C4)C2)C3)c1 [SMW139],,,,,,,stable in all groups,No treatment-related changes,no abnormalities suggesting a toxic effect,No significant differences in organ weights,"no abnormalities, complications or toxic clinical effects were observed; also recorded: no adverse or toxic effects; also recorded: no toxic effects",did not differ between vehicle injected animals and animals injected with SMW139
[11CH3]Oc1ccc(Cl)c(C(=O)NCC23CC4CC(CC(C4)C2)C3)c1 [[^11C]1],82 ± 1%,76 ± 2%,37 ± 5%,25 ± 1%,2.88 ± 0.14,,,,,,,
[11CH3]Oc1ccc(Cl)c(C(=O)NCC23CC4CC(F)(CC(F)(C4)C2)C3)c1 [[^11C]3],62 ± 2%,32 ± 2%,35 ± 1%,16 ± 1%,2.71 ± 0.01,,,,,,,
